# Patent US7838218B2, “Light emitting probes” (priority 2003, dated 2010)
# Target: T1, rabbit serum albumin (RSA) (Oryctolagus cuniculus, UniProt P49065)
# T1 construct: purchased Sigma (Sigma-Aldrich Chemical Co.)
# Assay: Fluorescence emission of probes with rabbit serum albumin as binder
# Assay type: binding
# Conditions: pyrene butyric acid excited at 345 nm, FITC at 490 nm; PBS
# Protocol: Fluorescence measurements were made on a Hitachi F-2500 fluorescence spectrophotometer with a 1 cm path length cuvette. Spectra were measured at a rate of 1500 nm/min. Excitation wavelength of 345 nm was used for pyrene and 490 nm for FITC.
# Lifetimes were measured on modified IBH machine.
# Proteins with hydrophobic pockets could be used as binders. […] The binder is not restricted to proteins. […] The excitation wavelength was 345 nm.
# T1 sequence (P49065 25-608): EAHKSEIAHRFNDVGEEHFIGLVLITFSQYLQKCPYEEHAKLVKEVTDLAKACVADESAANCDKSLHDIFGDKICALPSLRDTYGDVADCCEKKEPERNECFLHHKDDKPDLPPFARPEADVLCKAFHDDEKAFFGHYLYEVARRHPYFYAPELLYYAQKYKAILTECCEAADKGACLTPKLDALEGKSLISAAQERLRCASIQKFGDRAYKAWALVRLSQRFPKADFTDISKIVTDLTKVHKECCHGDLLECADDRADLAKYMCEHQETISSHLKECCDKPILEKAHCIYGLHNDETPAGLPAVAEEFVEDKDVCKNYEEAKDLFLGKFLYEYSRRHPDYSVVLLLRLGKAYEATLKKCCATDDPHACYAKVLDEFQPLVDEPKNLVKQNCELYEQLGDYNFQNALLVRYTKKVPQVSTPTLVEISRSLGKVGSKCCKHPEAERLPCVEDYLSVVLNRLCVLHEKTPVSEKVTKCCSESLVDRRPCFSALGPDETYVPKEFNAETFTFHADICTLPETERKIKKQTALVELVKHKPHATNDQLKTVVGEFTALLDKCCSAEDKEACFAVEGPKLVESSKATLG
row,Compound,effect of RSA on own emission spectrum of the free fluorophore
1,"O=C1OC2(c3ccc(O)cc3Oc3cc(O)ccc32)c2ccc(N=C=S)cc21 [FITC, fluorescein isothiocynate]",appears not to change
2,c1cc2ccc3cccc4ccc(c1)c2c34 [pyrene butyric acid],increasing the fluorescence intensity
